CNC(=O)NC
solubility (mole fraction)
Details | 288.15 K | 293.15 K | 298.15 K | 303.15 K | 308.15 K | 313.15 K | 318.15 K | 323.15 K | 328.15 K
in acetone | 0.129 | 0.152 | 0.177 | 0.202 | 0.228 | 0.261 | 0.301 | 0.339 | 0.376
in acetonitrile | 0.102 | 0.128 | 0.151 | 0.186 | 0.216 | 0.25 | 0.282 | 0.322 | 0.363
in ethyl acetate | 0.0302 | 0.0421 | 0.0608 | 0.0825 | 0.111 | 0.14 | 0.175 | 0.22 | 0.271
in isopropanol | 0.331 | 0.352 | 0.372 | 0.39 | 0.416 | 0.438 | 0.471 | 0.5 | 0.533
in n-butyl acetate | 0.0137 | 0.0205 | 0.0296 | 0.0408 | 0.0602 | 0.0834 | 0.111 | 0.148 | 0.195
in sec-butanol | 0.325 | 0.353 | 0.381 | 0.412 | 0.438 | 0.46 | 0.494 | 0.523 | 0.561
in water | 0.362 | 0.38 | 0.405 | 0.436 | 0.464 | 0.494 | 0.533 | 0.57 | 0.601

From BigSolDB 2.1
